For assay [1], the system named is kératinocytes humains oraux. In words: ELISA of IL-8, hBD-2 and MMP-9 secreted by oral keratinocytes stimulated with IL-17, IL-22 and TNF-alpha. The class given is cell-based. The following applies: 48h stimulation; for inhibition at 10 µM: Keratinocyte. How it is done: (§1) • L'échantillon « Extrait CCV » est obtenu tel que décrit dans l'exemple 1 et est dilué dans du DMSO 0,4% afin d'obtenir une concentration en célastrol de 137 µg/mL; trois doses sont testées, à savoir 10, 30 et 100 ng/mL. • L'échantillon « Célastrol » 150 µg/mL dans du DMSO 0,4 %; trois doses sont testées à savoir 10, 30 et 100 ng/mL.
(§2) Les échantillons contrôles sont les suivants : • L'échantillon témoin négatif « DMSO » (DMSO à 0,4%); et • L'échantillon témoin positif « Inhibiteur JAK » comprenant 10 µM d'inhibiteur JAK (JAK Inhibitor I - CAS 457081-03-7 - Calbiochem).
(§3) La lignée cellulaire utilisée est une lignée de kératinocytes humains oraux (CliniSciences ref.2610-SC). Cette lignée est cultivée à 37 °C, sous atmosphère 5 % de CO2 dans un milieu adapté (Oral Keratinocyte medium OKM supplémenté avec de la pénicilline 100 U/mL et de la streptomycine 100 µg/mL).
(§4) Les kératinocytes humains oraux sont ensemencés dans des puits de plaques à 24 puits (75 000 cellules/puits) et cultivés pendant 24h. Le milieu de culture est alors remplacé par du milieu frais contenant les échantillons à tester, et les cellules sont à nouveau incubées pendant 24h. L'opération est renouvelée à nouveau en présence d'un mix de cytokines stimulatrice des kératinocytes : IL-17, IL-22 et TNF-alpha à 3 ng/ml chacune. Le temps de culture est de 24h pour les expériences de RT-pPCR et de 48 pour les expériences d'ELISA. Les cellules sont ensuite lavées dans une solution de PBS et congelées immédiatement à - 80 °C.
(§5) Les expériences ont été réalisées en triplicats.
La quantité d'IL8, hBD-2 (DEBF4A) et de MMP-9 sécrétée par les kératinocytes dans le milieu de culture après 48h de stimulation est mesurée par ELISA.

In assay [2] the test system is kératinocytes humains oraux. The assay can be described thus: RT-qPCR of inflammatory marker expression in oral keratinocytes stimulated with IL-17, IL-22 and TNF-alpha. The class given is cell-based. How it is done: as §1, §2, §3, §4, §5
L'expression des marqueurs IL-8, CXCL1, DEBF4A, S100A7, IL-36 gamma et MMP9, par les kératinocytes est déterminée par RT-qPCR comme décrit dans la littérature avec des kits de Reverse transcriptase (Roche) et de PCR quantitative. Un témoin positif de PCR (GAPDH), exprimé constitutivement, est réalisé en parallèle afin de normaliser les résultats obtenus.

Assay [3] has as its system Staphylococcus aureus CIP4.83. The assay can be described thus: Determination of minimal inhibitory (CMI) and minimal bactericidal (CMB) concentration, liquid micro-method then subculture on agar. The class given is cell-based. As to conditions: for CMB / CMI / CMB (DMSO dilution) / CMI (DMSO dilution): S. aureus; for CMB / CMI: purified sample dissolved in DMSO; for CMB (DMSO dilution): real dilution (DMSO) at the CMB point; for CMI (DMSO dilution): real dilution (DMSO) at the CMI point. How it is done: • L'échantillon « Extrait CCV » obtenu tel que dans l'exemple 1 est titré à 150 µg/ml en Célastrol, 40 µg/ml en Tingénine A et 20 µg/ml en Tingénine B, dissouts dans du pentylène glycol 100 %. Pour les besoins du dosage, il est dilué à 2 % dans de l'eau pour préparation injectable (PPI). • L'échantillon « Tingénine A » est titré à 150 µg/ml dans du DMSO 10 %. • L'échantillon « Tingénine B » est titré à 150 µg/ml du DMSO 10 %. • L'échantillon « Célastrol » est titré à 150 µ/ml dans du DMSO 10 %.
Les souches bactériennes utilisées sont : • Staphylococcus aureus CIP4.83 entretenue sur milieu gelosé Trypticase-soja à 36 +/- 1 °C. • Fusobacterium nucleatum CIP101130T entretenue sur milieu gélosé Columbia + 5 % de sang de mouton à 36+/-1 °C en anaérobiose
La détermination de la Concentration Minimale Inhibitrice (CMI) est réalisée par micro-méthode en milieu liquide. 100 µL de milieu de culture Muller Hinton sont déposés dans chaque puits d'une microplaque de 96 puits stérile. 100 µL de l'échantillon à tester sont déposés dans la colonne 1 de la microplaque (deux puits par extrait à tester). Des dilutions de raison 2 sont réalisées de la façon suivante : 100 µL sont prélevés dans les puits de la colonne 1 puis ajouté et mélangés aux puits de la colonne 2. Cette opération est répétée jusqu'à la colonne 10. Les 100 µL prélevés dans la colonne 10 sont éliminés. La colonne 11 est utilisée comme témoin positif (milieu de culture + bactérie à tester). La colonne 12 est utilisée comme témoin négatif (milieu de culture seul). La microplaque est ensemencée (hors témoin négatif de croissance). Après une incubation de 16 à 24 h l'observation de la croissance à l'œil nu permet de déterminer une CMI (la plus faible concentration en extrait qui inhibe la croissance).
La détermination de la Concentration Minimale Bactéricide (CMB) est réalisée par repiquage des microplaques CMI sur un milieu Muller Hinton gélosé. Après incubation, la CMB correspond à la plus faible concentration de l'extrait testé pour laquelle on observe une absence de croissance.
Dans les tableaux 1 et 2 présentant les résultats comparatifs des différents échantillons testés sont indiqués : • 1. Pour l'extrait CCV, les CMI/CMB sont des concentrations équivalentes en célastrol. En effet, cet extrait est une solution qui contient majoritairement du Célastrol (Célastrol > 50 %, Tingénine A > 5 % et Tingénine B > 5 %). L'extrait est dissout dans du Pentylène Glycol (PG), on a le % (P/P) correspondant à la dilution réelle au point de CMI ou de CMB, et on en déduit la concentration équivalente en Célastrol grâce au titre (150 µg/ml) quantifié par HPLC. • 2. Pour les échantillons de Célastrol, de Tingénine A et de Tingénine B purifiés et dissouts dans le DMSO, le % mentionné correspond à la dilution réelle au point de CMI ou de CMB. • 3. Pour les solvants de contrôle DMSO et Pentylène Glycol (PG) testés en parallèle, le % correspond à la dilution réelle au point de CMI ou de CMB.

The next assay concerns lymphocytes T CD4+. In words: Anti-TH17 activity: cytokines secreted by CD4+ T lymphocytes activated with anti-CD3/anti-CD28 (Multiplex Immunoassays). The class given is cell-based, humaines. The following applies: 2 µM. As to the method:
L'échantillon « Extrait CCV » est obtenu tel que dans l'exemple 1 et est dilué dans 0,4 % DMSO afin d'obtenir les différentes concentrations finales suivantes après ajout dans les puits : • Extrait 2 (titré en Célastrol à 9 ng/ml); • Extrait 3 (titré en Célastrol à 30 ng/ml); et • Extrait 4 (titré en Célastrol à 90 ng/ml).
Les échantillons contrôles sont les suivants : • Contrôle négatif 1 (solution DMSO à 0,4 %); et • Contrôle positif 5 : dexaméthasone (Dexa) à 2 µM (concentration finale dans le puits).
Les cellules T humaines ont été isolées à partir de cellules mononuclées de sang de deux donneurs sur Ficoll Paque plus (selon le protocole du fabricant). Les cellules CD4+ sont isolées par tri positif (Kit Miltenyi Biotec (CD4) et colonne LS) et remises en suspension dans du milieu de culture RPMI (Sigma Aldrich : L-Glutamine et sérum foetal bovin à 10 %) additionné de […] de streptomycine et 100 U/mL de pénicilline.
Les Lymphocytes en suspension sont répartis dans des puits de microplaques. […]
La quantité de cytokine IL17A, IFN gamma, IL22, TNF alpha et IL6 sécrétée dans le surnageant de culture des lymphocytes est ensuite mesurée par la méthode Multiplex Immunoassays (tel que notamment décrit dans Jager et al. Clin. Diagn. Lab. Immunol. 2003, 10(1), 133-139).

Each structure is given as a SMILES string. Like-named read-outs stand apart in the source and are kept apart here.

Regarding `CC1=C(O)C(=O)C=C2C1=CC=C1[C@@]2(C)CC[C@@]2(C)[C@@H]3C[C@](C)(C(=O)O)CC[C@]3(C)CC[C@]12C` [Célastrol], the “inhibition de l'expression du marqueur MMP9” value in assay [1] (at 30 ng/ml) is ~40%. Further, the “expression des marqueurs IL-8, DEFBA4, S100A7, IL-36 gamma et MMP9” value in assay [2] (10, 30 and 100 ng/mL, 24h stimulation) is “inhibition claire, significative et dose dépendante”. Moreover, in assay [3], the CMB is on record as 0,59 µg/ml, the CMI is recorded as 0,29 µg/ml, the “CMB (DMSO dilution)” value is 0,04% and the “CMI (DMSO dilution)” value was 0,01%.

Take `CC1=C(O)C(=O)C=C2C1=CC=C1[C@@]2(C)CC[C@@]2(C)[C@@H]3C[C@@H](C)C(=O)C[C@]3(C)CC[C@]12C` [Tingénine A]: in assay [3], the CMB was 2,34 µg/ml, the CMI is reported as 1,17 µg/ml, the “CMB (DMSO dilution)” value was 0,08% and the “CMI (DMSO dilution)” value is listed as 0,08%.

As to `CC1=C(O)C(=O)C=C2C1=CC=C1[C@@]2(C)CC[C@@]2(C)[C@@H]3C[C@@H](C)C(=O)[C@@H](O)[C@]3(C)CC[C@]12C` [Tingénine B, 22 béta-Hydroxy-tingénone], in assay [3], the CMB is recorded as 1,17 µg/ml, the CMI is 0,59 µg/ml, the “CMB (DMSO dilution)” value is 0,08% and the “CMI (DMSO dilution)” value is on record as 0,04%. Besides, the “activité anti S. aureus, fois supérieure à celle de la Tingénine A” value in assay [3] (ratio versus Tingénine A) is listed as 2-4 fois.

Consider `C[C@@H]1C[C@H]2[C@@H]3CCC4=CC(=O)C=C[C@]4(C)[C@@]3(F)[C@@H](O)C[C@]2(C)[C@@]1(O)C(=O)CO` [dexaméthasone], for which the “surexpression des cytokines IL-17A, IFN gamma, IL-22, TNF alpha et IL-6” value in the assay with lymphocytes T CD4+ is given as “inhibe la surexpression de toutes les cytokines”.

Take `CC(C)(C)c1nc2c3ccc(F)cc3c3c(=O)[nH]ccc3c2[nH]1` [inhibiteur JAK, JAK Inhibitor I]: the “augmentation de la sécrétion de MMP-9” value in assay [1] (10 µM) amounted to 60%. The inhibition at 10 µM is 69% in assay [1] (10 µM, read-out: inhibition de la sécrétion d'IL-8) and 82% in assay [1] (10 µM, read-out: inhibition de la sécrétion de β-défensine-2). Besides, in assay [2] (10 µM), the “expression de l'IL-36 gamma et de la MMP9” value is reported as “n'inhibe ni l'IL-36 gamma ni la MMP9”. In assay [2] (10 µM, versus negative control), the “expression d'IL8, de DEFB4A et de S100A7” value is “diminution de l'expression”.

(Values after patent EP3710011B1, “PENTACYCLIC TRITERPENES FOR THE TREATMENT OF AN ORAL DISEASE” (PIERRE FABRE MEDICAMENT, priority 2017, dated 2019).)
